Patent US20160317391A1, “MEDIA MILLING PROCESS FOR THE MANUFACTURE OF ACTIVE PHARMACEUTICAL INGREDIENTS IN PROPELLANTS” (MERCK SHARP & DOHME CORP., priority 2013, published 2016)
Values joined by “and” are separate entries in the source; they are usually repeats but may differ in a detail not shown here. Equal entries are not always repeated.

Experiments:
[1] = Particle size distribution (X50, X90) before and after HFA-LabRAM media milling, […] particle size analyzer; format: physicochemical; settings: for X50 after RAM-milling: grades ML001 and SV003; for PSD after HFA Milling X50 / PSD after HFA Milling X90: 80% power; for particle size (X50) prior to HFA-based RAM milling: unmilled
Method: In a typical RAM based media milling process (see FIG. 1), API is added to a glass bottle along with Yttria zirconia (YTZ, diameters ranging from about 0.1 to about 2 mm) beads. Preferred bead sizes are from about 0.05 to about 5 mm. Another preferred bead size is from about 0.1 to about 2 mm. Other components that can be added to the API-bead mixture include stabilizers and surfactants that can augment the milling process. The ratio of the beads to that of the formulation components can be varied to suit the needs of particle size requirements. Particularly preferred ratios of beads to formulation components are from 40:1, 20:1, 15:1, 10:1 and 5:1. The bottle is crimp sealed and filled with appropriate amounts of either HFA227 or HFA134a (or a combination of both at varying ratios). The bottle is then loaded onto a RAM device and milled for a specified duration of time and at a specified power. Milling times include between about 5 minutes to about 300 minutes. Preferred milling times are from about 30 minutes to about 200 minutes and 60 minutes to about 120 minutes. Power includes about 10% to about 100% power. Preferred power range is about 40% to about 100%. Further, preferred power range is about 75% to about 100%. In most cases, the process can proceed to completion without stoppage. However, because of the ease and simplicity of the process, the process flow can be readily altered by stopping the media milling at intermittent time points for a known period of time before restarting the process again. This may be performed to cool the contents of the bottle at regular intervals. After completion, the bottle is allowed to revert to room temperature (if needed) to rapidly vent the HFA. After the process is finished the contents of the bottle (API, any excipients and/or additives, and the beads) are then added to a sieve of appropriate mesh size to separate the beads and the API. The milled API is collected and stored at 0% RH (in a nitrogen glove box) for further use.
GP was milled utilizing LabRAM in both HFA134a and HFA227. The milling was accomplished at different parameters of solids ratio, milling duration and power. YTZ beads ([…]) were utilized.
Lactose is an excipient that is FDA approved and is utilized as a carrier in dry powder inhalers. In one variation of the milling study, β-lactose (anhydrous) purchased from sigma-aldrich was subjected to HFA (HFA227) based media milling using LabRAM at a preset power of 80% and for a duration of 70 minutes. The ratio of YTZ beads ([…]) to β-lactose was maintained at 20:1. Particle size (X50) of β-lactose prior to HFA-based RAM milling was 153.6±7.4 μm. Upon subjecting the unmilled lactose to RAM-milling under the aforementioned conditions, the particle size (X50) of β-lactose was 3.47±0.01 μm.

[2] = DSC thermograms of unmilled and HFA-LabRAM milled material (solid state); format: physicochemical; settings: milled versus unmilled material
Text: With respect to the examples below, the milled API was subject to DSC and the thermograms compared to that of the neat unmilled API. The data from the thermograms clearly indicate that the RAM based HFA-milled API maintains its crystalline structure (FIG. 2B). It was also confirmed that the RAM milling process minimized the undesirable amorphous material generation during milling.

[3] = HFA227, 60 mins, API:Bead ratio (w/w) 20, in µm (unit assumed)
[4] = HFA227, 86 min, API:Bead ratio (w/w) 20, in µm (unit assumed)
[5] = HFA227, 90 min, 5 min stop @45, 10 min stop, 90% power for additional 3 mins, API:Bead ratio (w/w) 20, in µm (unit assumed)
[6] = HFA227, 90 min, 5 min stop @45, API:Bead ratio (w/w) 10, in µm (unit assumed)
[7] = HFA227, 105 mins, API:Bead ratio (w/w) 20, in µm (unit assumed)
[8] = unmilled GP, in µm (unit assumed)

For O.OC[C@H]1O[C@@H](O[C@H]2[C@H](O)[C@@H](O)C(O)O[C@@H]2CO)[C@H](O)[C@@H](O)[C@H]1O (some centres unmarked) [Lactose monohydrate], the “X50 after RAM-milling” value ([1]; HFA134a, similar conditions) was 1.9 μm and the “X50 after RAM-milling” value ([1]; HFA227) was “less than 3 μm”.
In the case of C[N+]1(C)CCC(OC(=O)C(O)(c2ccccc2)C2CCCC2)C1.[Br-] (centres unmarked) [jet milled GP, glycopyrrolate bromide], the “time within which X50 / particle size doubles” value (75% RH and 40° C.) is reported as no more than 6 h, the “particle size shown at 24 h (visual observation)” value (75% RH and 40° C., 24 h, visual observation, […]) is reported as 10 μm and the “increase in the size of the API” value (75% RH and 40° C., within 24 h) is reported as 100 fold.
With C[N+]1(C)CCC(OC(=O)C(O)(c2ccccc2)C2CCCC2)C1.[Br-] (centres unmarked) [HFA-LabRAM milled GP, glycopyrrolate bromide] the “particle size (X50) at start of storage” value (75% RH and 25° C. study, initial value) was 1.54 μm, the “particle size (X50) after storage” value (75% RH and 25° C., within a span of 24 h) was 1.78 μm and the “increase in PSD” value (75% RH and 40° C., within 20 h) was 0.5 μm.
For C[N+]1(C)CCC(OC(=O)C(O)(c2ccccc2)C2CCCC2)C1 (centres unmarked) [GP, glycopyrrolate bromide], the “X50 after LabRAM milling, all cases” value ([1]; HFA134a and HFA227, different solids ratio, milling duration and power, YTZ beads) was “less than 3 μm”, the “average X50 after LabRAM milling” value ([1]; HFA134a, increased solids ratio) was 1.5 μm and the “PSD after HFA Milling X50” value [1, 3] was 3.49 ± 0.02. The “PSD after HFA Milling X90” value [1, 3] was 15.93 ± 0.14, the “PSD after HFA Milling X50” value [1, 4] was 1.7 and the “PSD after HFA Milling X90” value [1, 4] was 4.53 ± 0.21. The “PSD after HFA Milling X50” value [1, 5] was 1.37 ± 0.13, the “PSD after HFA Milling X90” value [1, 5] was 3.67 ± 0.03 and the “PSD after HFA Milling X50” value [1, 6] was 1.7 and 1.53 ± 0.06. The “PSD after HFA Milling X90” value [1, 6] was 3.87 ± 0.12 and 3.67 ± 0.06, the “PSD after HFA Milling X50” value [1, 7] was 2.62 ± .01 and the “PSD after HFA Milling X90” value [1, 7] was 9.83 ± 0.01. The “particle size (X50) prior to HFA-based RAM milling” value [1] was “ca. 51 μm”, the “PSD before HFA Milling X50” value [1, 8] was 52.77 ± 1.55 and 52.77 ± 1.56 and 52.77 ± 1.57 and 52.77 ± 1.54 and the “PSD before HFA Milling X90” value [1, 8] was 134.7 ± 9.10 and 134.7 ± 9.11 and 134.7 ± 9.12 and 134.7 ± 9.9. The “solid state after HFA-LabRAM milling (DSC)” value (from here on “solid state”) [2] was “no change in the polymorphic state”.
In the case of OC[C@H]1O[C@@H](O[C@H]2[C@H](O)[C@@H](O)[C@H](O)O[C@@H]2CO)[C@H](O)[C@@H](O)[C@H]1O [β-lactose], the “particle size (X50) of the recovered product” value ([1]; HFA134a, bead to lactose ratio 40:1, 60 minute duration) is reported as 2.3 μm, the “particle size (X50) after RAM-milling” value ([1]; HFA227, power 80%, 70 minutes, YTZ beads to β-lactose 20:1) is reported as 3.47±0.01 μm and the “particle size (X50) prior to HFA-based RAM milling” value [1] is reported as 153.6±7.4 μm. For the same compound, the “solid state” value [2] was “crystalline” and the “solid state” value ([2]; listed as lactose) was “no glass transition”.
